Source: patent US20260285888A1, “HETEROCYCLIC COMPOUND AND USE THEREOF” (OTSUKA PHARMACEUTICAL CO., LTD., priority 2023, published 2026)

Assays:
in vitro = assay type: cell-based, human; details: human, differentiated hl-60 cells, 300 μmol/L, about 24 hours, PMA-differentiated HL-60 cells, LDH; no-treatment 0%, cell lysis buffer 100%; read-out: cytotoxicity (%) Evaluation compound results
Method: An HL-60 cell line (human acute promyelocytic leukemia cells) was successively cultured in RPMI 1640 containing 20% fetal bovine serum (FBS) at 37° C. in 95% atmosphere/5% CO2. Before evaluation, the cells were pre-cultured for about 72 hours in the presence of 10 nM phorbol 12-myristate 13-acetate (PMA) to induce macrophage-like differentiation.
Evaluation compounds were dissolved in DMSO to obtain 30 mmol/L solutions (or suspensions). Each DMSO solution was diluted 100-fold with RPMI 1640 containing 2% FBS (final concentration of the compound: 300 μmol/L) to obtain a treatment solution. The culture supernatant of the differentiated HL-60 cells was removed, and each treatment solution was added and cultured for about 24 hours, followed by cytotoxicity evaluation.
The activity of lactate dehydrogenase (LDH) was measured in the treatment solutions exposed to the cells for about 24 hours by using a commercial kit (Cytotoxicity LDH Assay Kit-WST, Dojindo Laboratories) and a plate reader (Tecan Infinite M1000). The obtained measurement values were used to calculate cytotoxicity (%) as comparison values for each evaluation compound-treated group, with the no-treatment group taken as 0% and the cell lysis buffer-treated group taken as 100%. The test was conducted in triplicate in three wells each, and the average values were used as adopted values.

[1] = Study for confirmation of conversion to brexpiprazole in a buffer (stability of the evaluation compounds); assay type: physicochemical; details: in buffer, average of duplicate; for Concentration of brexpiprazole formed: 60-minute reaction sample; for Concentration of evaluation compound decreased: decrease in 60-minute vs 0-minute reaction sample
Procedure, shortened: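 Compounds (final 1 μmol/L, from 100 μmol/L working solutions) incubated in buffer at 37° C. for 0 or 60 min, in duplicate, after 3 min pre-incubation of the reaction solution. Reactions stopped with acetonitrile/isopropanol (4:1) containing internal standards; compound and formed brexpiprazole quantified against 0.01–1 μmol/L calibration samples.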

Structure (SMILES)	Concentration of brexpiprazole formed [1] [µM]	Concentration of evaluation compound decreased [1] [µM]	cytotoxicity at 24 h, 300 µM (in vitro) [%]
CC(O)CCOP(=O)([O-])OC[N+]1(CCCCOc2ccc3ccc(=O)[nH]c3c2)CCN(c2cccc3sccc23)CC1 (stereo not drawn) [EX 40, (4-(benzo[b]thiophen-4-yl)-1-(4-((2-oxo-1,2-dihydroquinolin-7-yl)oxy)butyl)piperazin-1-ium-1-yl)methyl (3-hydroxybutyl) phosphate]	0.00	0.06	-5
O=c1ccc2ccc(OCCCC[N+]3(COP(=O)([O-])OCCCCCCCBr)CCN(c4cccc5sccc45)CC3)cc2[nH]1 [EX 64, (4-(benzo[b]thiophen-4-yl)-1-(4-((2-oxo-1,2-dihydroquinolin-7-yl)oxy)butyl)piperazin-1-ium-1-yl)methyl (7-bromoheptyl) phosphate]	0.00	0.03	9
O=c1ccc2ccc(OCCCC[N+]3(COP(=O)([O-])OCCCCO)CCN(c4cccc5sccc45)CC3)cc2[nH]1 [EX 10, (4-(benzo[b]thiophen-4-yl)-1-(4-((2-oxo-1,2-dihydroquinolin-7-yl)oxy)butyl)piperazin-1-ium-1-yl)methyl (4-hydroxybutyl) phosphate]	0.00	-0.02	-6
CCOCCOCCOP(=O)([O-])OC[N+]1(CCCCOc2ccc3ccc(=O)[nH]c3c2)CCN(c2cccc3sccc23)CC1 [EX 98, (4-(benzo[b]thiophen-4-yl)-1-(4-((2-oxo-1,2-dihydroquinolin-7-yl)oxy)butyl)piperazin-1-ium-1-yl)methyl (2-(2-ethoxyethoxy)ethyl) phosphate]	0.00	-0.02	-8
CC(C)(C)OC(=O)CNP(=O)([O-])OC[N+]1(CCCCOc2ccc3ccc(=O)[nH]c3c2)CCN(c2cccc3sccc23)CC1 [EX 155, (4-(benzo[b]thiophen-4-yl)-1-(4-((2-oxo-1,2-dihydroquinolin-7-yl)oxy)butyl)piperazin-1-ium-1-yl)methyl (2-(tert-butoxy)-2-oxoethyl)phosphoramidate]	0.00	0.16	-3
O=c1ccc2ccc(OCCCC[N+]3(COP(=O)([O-])OCCCCBr)CCN(c4cccc5sccc45)CC3)cc2[nH]1 [EX 62, (4-(benzo[b]thiophen-4-yl)-1-(4-((2-oxo-1,2-dihydroquinolin-7-yl)oxy)butyl)piperazin-1-ium-1-yl)methyl (4-bromobutyl) phosphate]	0.00	0.18	3
CC(=O)Oc1ccccc1C(=O)OCOP(=O)([O-])OC[N+]1(CCCCOc2ccc3ccc(=O)[nH]c3c2)CCN(c2cccc3sccc23)CC1 [EX 80, (2-acetoxybenzoyl)oxy)methyl ((4-(benzo[b]thiophen-4-yl)-1-(4-((2-oxo-1,2-dihydroquinolin-7-yl)oxy)butyl)piperazin-1-ium-1-yl)methyl) phosphate]	0.00	0.17	7
CC(C)(C)[Si](C)(C)OCCCCOP(=O)([O-])OC[N+]1(CCCCOc2ccc3ccc(=O)[nH]c3c2)CCN(c2cccc3sccc23)CC1 [EX 60, (4-(benzo[b]thiophen-4-yl)-1-(4-((2-oxo-1,2-dihydroquinolin-7-yl)oxy)butyl)piperazin-1-ium-1-yl)methyl (4-((tert-butyldimethylsilyl)oxy)butyl) phosphate]	0.00	0.09	16
CC1(C)OCC(NC(=O)CCCC(=O)OCOP(=O)([O-])OC[N+]2(CCCCOc3ccc4ccc(=O)[nH]c4c3)CCN(c3cccc4sccc34)CC2)CO1 [EX 74, (4-(benzo[b]thiophen-4-yl)-1-(4-((2-oxo-1,2-dihydroquinolin-7-yl)oxy)butyl)piperazin-1-ium-1-yl)methyl (((5-((2.2-dimethyl-1,3-dioxan-5-yl)amino)-5-oxopentanoyl)oxy)methyl) phosphate]	0.00	0.05	-1
Cc1cccc(C(=O)OCCCCCCOP(=O)([O-])OC[N+]2(CCCCOc3ccc4ccc(=O)[nH]c4c3)CCN(c3cccc4sccc34)CC2)n1 [EX 59, (4-(benzo[b]thiophen-4-yl)-1-(4-((2-oxo-1,2-dihydroquinolin-7-yl)oxy)butyl)piperazin-1-ium-1-yl)methyl (6-((6-methylpicolinoyl)oxy)hexyl) phosphate]	0.00	0.05	1

Continued, in another order:

Concentration of brexpiprazole formed [1] [µM]	Concentration of evaluation compound decreased [1] [µM]	Structure (SMILES)	cytotoxicity at 24 h, 300 µM (in vitro) [%]
0.00	0.11	O=C(OCCCN1CCOCC1)OCOP(=O)([O-])OC[N+]1(CCCCOc2ccc3ccc(=O)[nH]c3c2)CCN(c2cccc3sccc23)CC1 [EX 146, (4-(Benzo[b]thiophen-4-yl)-1-(4-((2-oxo-1,2-dihydroquinolin-7-yl)oxy)butyl)piperazin-1-ium-1-yl)methyl ((((3-morpholinopropoxy)carbonyl)oxy)methyl) phosphate]	1
0.00	-0.02	CC(C)OC(=O)OCOP(=O)([O-])OC[N+]1(CCCCOc2ccc3ccc(=O)[nH]c3c2)CCN(c2cccc3sccc23)CC1 [EX 130, (4-(benzo[b]thiophen-4-yl)-1-(4-((2-oxo-1,2-dihydroquinolin-7-yl)oxy)butyl)piperazin-1-ium-1-yl)methyl (isopropoxycarbonyl)oxy)methyl) phosphate]	1
0.00	0.13	CCOCCOC(=O)OCOP(=O)([O-])OC[N+]1(CCCCOc2ccc3ccc(=O)[nH]c3c2)CCN(c2cccc3sccc23)CC1 [EX 132, (4-(benzo[b]thiophen-4-yl)-1-(4-((2-oxo-1,2-dihydroquinolin-7-yl)oxy)butyl)piperazin-1-ium-1-yl)methyl ((((2-ethoxyethoxy)carbonyl)oxy)methyl) phosphate]	-7
0.00	0.07	CCOC(=O)C(CC)OP(=O)([O-])OC[N+]1(CCCCOc2ccc3ccc(=O)[nH]c3c2)CCN(c2cccc3sccc23)CC1 (stereo not drawn) [EX 110, (4-(benzo[b]thiophen-4-yl)-1-(4-((2-oxo-1,2-dihydroquinolin-7-yl)oxy)butyl)piperazin-1-ium-1-yl)methyl (1-ethoxy-1-oxobutan-2-yl) phosphate]	-3
0.00	0.02	O=C(OCOP(=O)([O-])OC[N+]1(CCCCOc2ccc3ccc(=O)[nH]c3c2)CCN(c2cccc3sccc23)CC1)OC1CCOCC1 [EX 141, (4-(benzo[b]thiophen-4-yl)-1-(4-((2-oxo-1,2-dihydroquinolin-7-yl)oxy)butyl)piperazin-1-ium-1-yl)methyl (((((tetrahydro-2H-pyran-4-yl)oxy)carbonyl)oxy)methyl) phosphate]	19
0.00	0.07	CC(C)(C)C(=O)OCCCCCCOP(=O)([O-])OC[N+]1(CCCCOc2ccc3ccc(=O)[nH]c3c2)CCN(c2cccc3sccc23)CC1 [EX 102, (4-(benzo[b]thiophen-4-yl)-1-(4-((2-oxo-1,2-dihydroquinolin-7-yl)oxy)butyl)piperazin-1-ium-1-yl)methyl (6-(pivaloyloxy)hexyl) phosphate]	16
0.00	0.04	O=C(OCOP(=O)([O-])OC[N+]1(CCCCOc2ccc3ccc(=O)[nH]c3c2)CCN(c2cccc3sccc23)CC1)C1CCOCC1 [EX 127, (4-(benzo[b]thiophen-4-yl)-1-(4-((2-oxo-1,2-dihydroquinolin-7-yl)oxy)butyl)piperazin-1-ium-1-yl)methyl (((tetrahydro-2H-pyran-4-carbonyl)oxy)methyl) phosphate]	0
0.00	-0.01	O=C(OCOP(=O)([O-])OC[N+]1(CCCCOc2ccc3ccc(=O)[nH]c3c2)CCN(c2cccc3sccc23)CC1)N1CCOCC1 [EX 160, (4-(benzo[b]thiophen-4-yl)-1-(4-((2-oxo-1,2-dihydroquinolin-7-yl)oxy)butyl)piperazin-1-ium-1-yl)methyl (((morpholine-4-carbonyl)oxy)methyl) phosphate]	9
